According to US20100197789A1, “ANTI-OBESITY AGENT AND USE THEREOF” (National University Corporation Nagoya University, priority 2006, published 2010):

What was measured:
Type in all cases: in vivo, mouse
db/db mice = experiment: Rectal temperature, oxygen consumption and motor activity, db/db mice
Experimental: 5 week-old male C57BL/KsJ-db/db mice (db/db mice: body weight 19 to 25 g, Japan SLC, Inc.) were purchased and individually fed in tip cages. For the db/db mice, normal pellet diet (CE-2) was administered under free water intake and free food intake. A body weight and a food intake amount over 24 hours were measured everyday from the start of feeding. On day 3 after the start of feeding, blood was taken from an orbit after 6 hour-fasting and a blood glucose level and a blood insulin concentration were measured. The db/db mice were divided into three groups (10 mice per each group) so that a body weight, a 24 hour-food intake amount, a blood glucose level, and a blood insulin concentration were equal, and defined to be a control group, an R-baclofen treated group, and an S-baclofen treated group. […] After division into the groups, from day 5 after the start of feeding, R-baclofen and S-baclofen were dissolved in drinking water and 5 week-continuous oral administration was started. Both of R-baclofen and S-baclofen were dissolved in drinking water at a concentration of 1.1 mg/dl used in the low concentration treated group in the experiment of baclofen racemic mixture administration. A food intake amount and a body weight were measured over time, and a rectal temperature was measured 5 weeks after the start of the administration. Blood was taken after the 5-week administration of baclofen, and the db/db mice were sacrificed by cervical luxation.
R-baclofen and S-baclofen were administered to db/db/mice and (±)-baclofen was administered to db/^+m mice respectively for 5 weeks, and rectal temperatures were then continuously measured for 3 days at 20 o'clock immediately before the dark period when feed intake was started in the mice. The method of measuring rectal temperatures was as follows. That is, the rectal temperatures were measured by using a digital thermistor (manufactured by NATSUME SEISAKUSHO CO., LTD.).
(±)-baclofen was orally administered to db/db mice and DIO mice for 5 weeks and rectal temperatures were measured 5 weeks after the start of the administration, and oxygen consumptions and motor activity were measured by using a small animal metabolism measuring system (model MK-5000: Muromachi Kikai Co., Ltd.).

db/^+m mice = experiment: Food intake amount and body weight, 5 week-continuous oral administration, non-obese db/+m mice; details: (±)-baclofen 2.7 mg/dl in drinking water, 5 weeks
Experimental: 5 week-old male C57BL/KsJ-db/^+m mice (db/^+m mice: body weight 19 to 23 g, Japan SLC, Inc.) were purchased and individually fed in tip cages. To the db/^+m mice, normal pellet diet (CE-2) was administered under free water intake and free food intake. A body weight and a food intake amount over 24 hours were measured every day from the start of feeding. On day 3 after the start of feeding, blood was taken from an orbit after 6 hour-fasting and a blood glucose level and a blood insulin concentration were measured. The db/^+m mice were divided into two groups (10 mice per each group) so that a body weight, a 24 hour-food intake amount, a blood glucose level, and a blood insulin concentration were equal, and defined to be a control group and a baclofen treated group. After division into the groups, from day 5 after the start of feeding, (±)-baclofen was dissolved in drinking water and 5 week-continuous oral administration was started in the baclofen treated group. (±)-baclofen was dissolved in drinking water at a concentration of 2.7 mg/dl used in the high concentration treated group in the experiment of db/db mice. A food intake amount and a body weight of the db/^+m mice were measured over time, and a rectal temperature was measured 5 weeks after the start of the administration. Blood was taken after the 5-week administration of (±)-baclofen, and the db/^+m mice were sacrificed by cervical luxation.
5 week-old male C57BL/KsJ-db/db mice (db/db mice: body weight 19 to 25 g, Japan SLC, Inc.) were purchased and individually fed in tip cages. Normal pellet diet (CE-2) was administered to the db/db mice under free water intake and free food intake. A body weight and a food intake amount over 24 hours were measured every day from the start of feeding. On day 3 after the start of feeding, blood was taken from an orbit after 6 hour-fasting and a blood glucose level and a blood insulin concentration were measured. The db/db mice were divided into three groups (10 mice per each group) so that a body weight, a 24 hour-food intake amount, a blood glucose level, and a blood insulin concentration were equal and defined to be a control group, an SKF97541 treated group and a 3-APPA treated group. SKF97541 and 3-APPA were dissolved in drinking water at respective concentrations of 10×10^−6 M and 100×10^−6 M, and continuously orally administered for 5 weeks, and a food intake amount and a body weight were measured over time during the administration period. SKF97541 (10×10^−6 M) or 3-APPA (100×10^−6M) was dissolved in drinking water and orally administered also to db/^+m mice, and a food intake amount and a body weight were measured over time in the same manner.

POMC mRNA = experiment: In situ hybridization, POMC mRNA in hypothalamic arcuate nucleus, DIO mice; details: (±)-baclofen oral 5 weeks
Experimental: A hypothalamic section with a thickness of 12 μm was prepared from the brain preserved at −80° C. by using a cryostat and stuck to a MAS coat slide and then in situ hybridization was performed. For a label of NPY mRNA and POMC mRNA probes, ^35S was used. The hypothalamic section was pretreated by using triethanolamine, ethanol and the like, and then 12 hour-hybridization was performed at 55° C. After the hybridization, the hypothalamic section was treated by washing with SSC, RNase, etc. After development to a film, the mRNA expression strength was assayed by using the NIH image.
(±)-baclofen was orally administered to DIO mice for 5 weeks according to the above method, and then the DIO mice were sacrificed. A brain was surgically removed, and changes in expression amounts of NPY mRNA and POMC mRNA in the hypothalamic arcuate nucleus were examined by using an in situ hybridization method.

`NCC(CC(=O)O)c1ccc(Cl)cc1` (racemic) [(±)-baclofen, (RS)-4-amino-3-(4-chlorophenyl)butanoic acid] was tested, and the oxygen consumption (db/db mice; (±)-baclofen oral 5 weeks) was “significantly increased”, the “body temperature (rectal)” value (db/db mice; (±)-baclofen oral, 5 weeks after start of administration) was “significantly raised” and the body weight (db/^+m mice) was “did not give significant effects”. The food intake amount (db/^+m mice) was “did not give significant effects” and the “expression of POMC mRNA in the hypothalamic arcuate nucleus” value (POMC mRNA) was “significantly increased”.
